Reference: PubChem BioAssay AID330 (DTP/NCI, 2004)
“And” between values parts separate entries of the source, which are not always exact repeats. Equal values may be shown once. Toxic doses and inconclusive results are not listed. Rule for the calls: active = survival T/C of 150% or more; inactive = T/C below 125% in these data.

Test system: P388 leukemia ip, CD2F1 mice, survival T/C
Test: NCI In Vivo Anticancer Drug Screen. Data for tumor model P388 Leukemia (intraperitoneal) in CD2F1 (CDF1) mice
Settings: endpoint: median survival time, higher = longer survival
Summary of the method: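 Mice carrying the transplanted tumor received test compound or vehicle. Survival was recorded in each group, and the value is the treated-group measurement divided by that of the vehicle-treated control group.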

[1] = dose: 100.0 mg/kg/injection, schedule: Q01DX009 (ip), vehicle: saline with Tween-80
[2] = dose: 200.0 mg/kg/injection, schedule: Q01DX009 (ip), vehicle: saline with Tween-80
[3] = dose: 200.0 mg/kg/injection, schedule: Q04DX003 (ip), vehicle: saline with Tween-80
[4] = dose: 400.0 mg/kg/injection, schedule: Q01DX009 (ip), vehicle: saline with Tween-80
[5] = dose: 400.0 mg/kg/injection, schedule: Q04DX003 (ip), vehicle: saline with Tween-80
[6] = dose: 50.0 mg/kg/injection, schedule: Q01DX005 (ip), vehicle: saline with Tween-80
[7] = dose: 100.0 mg/kg/injection, schedule: Q01DX005 (ip), vehicle: saline with Tween-80
[8] = dose: 200.0 mg/kg/injection, schedule: Q01DX005 (ip), vehicle: saline with Tween-80
[9] = dose: 50.0 mg/kg/injection, schedule: Q01DX009 (ip), vehicle: saline with Tween-80
[10] = dose: 50.0 mg/kg/injection, schedule: Q01DX005 (ip), vehicle: Klucel (hydroxypropylcellulose) (HPC)
[11] = dose: 50.0 mg/kg/injection, schedule: Q01DX009 (ip), vehicle: saline
[12] = dose: 100.0 mg/kg/injection, schedule: Q01DX009 (ip), vehicle: saline
[13] = dose: 200.0 mg/kg/injection, schedule: Q01DX009 (ip), vehicle: saline
[14] = dose: 25.0 mg/kg/injection, schedule: Q01DX009 (ip), vehicle: Klucel (hydroxypropylcellulose) (HPC)
[15] = dose: 50.0 mg/kg/injection, schedule: Q01DX009 (ip), vehicle: Klucel (hydroxypropylcellulose) (HPC)
[16] = dose: 100.0 mg/kg/injection, schedule: Q01DX009 (ip), vehicle: Klucel (hydroxypropylcellulose) (HPC)
[17] = dose: 50.0 mg/kg/injection, schedule: Q04DX003 (ip), vehicle: saline with Tween-80
[18] = dose: 100.0 mg/kg/injection, schedule: Q04DX003 (ip), vehicle: saline with Tween-80
[19] = dose: 60.0 mg/kg/injection, schedule: Q01DX005 (ip), vehicle: saline with Tween-80
[20] = dose: 120.0 mg/kg/injection, schedule: Q01DX005 (ip), vehicle: saline with Tween-80
[21] = dose: 240.0 mg/kg/injection, schedule: Q01DX005 (ip), vehicle: saline with Tween-80

Measured: T/C

CN(c1ccccc1)S(=O)(=O)c1ccccc1
inactive: [1] 95 % of control | [2] 95 % of control | [3] 100 % of control | [4] 100 % of control | [5] 87 % of control

CC1CCC2(C)OC1OC2=O (stereo not given)
inactive: [6] 97 % of control | [7] 91 % of control | [8] 87 % of control

CCOC(=O)c1nc2c(N)nc(-c3ccccc3)nc2[nH]c1=O
inactive: [9] 94 % of control | [1] 92 % of control | [2] 97 % of control

C1=CC(=C(C2CCC(Nc3ccccc3)CC2)C2CCC(Nc3ccccc3)CC2)C=CC1=Nc1ccccc1 (stereo not given)
inactive: [9] 100 % of control | [1] 109 % of control | [2] 109 % of control

C=CCN(CC=C)P(=O)(N(CC=C)CC=C)N(CC=C)CC=C
inactive: [10] 99 % of control | dose: 100.0 mg/kg/injection, schedule: Q01DX005 (ip), vehicle: Klucel (hydroxypropylcellulose) (HPC) 99 % of control

O=C(Nc1ccc(Cl)cc1)c1cc2c(cc1O)[nH]c1ccccc12
inactive: [6] 92 % of control | [7] 96 % of control | [8] 98 % of control

O=CN1CCCC1Cc1ccccc1 (stereo not given)
inactive: dose: 50.0 mg/kg/injection, schedule: Q01DX001 (ip), vehicle: Klucel (hydroxypropylcellulose) (HPC) 101 % of control | dose: 100.0 mg/kg/injection, schedule: Q01DX001 (ip), vehicle: Klucel (hydroxypropylcellulose) (HPC) 96 % of control

CC(C)=CC1C(C(=O)OC23C=CC(CC2C)C3)C1(C)C (stereo not given)
inactive: [11] 104 % of control | [12] 98 % of control | [13] 102 % of control

C/C=C(\C)C(=O)OC1C(O)C(C)(C)C2C3C(=O)C=C(C)C2C3(C)C1OC(=O)/C(C)=C/C (stereo not given)
inactive: dose: 12.5 mg/kg/injection, schedule: Q01DX009 (ip), vehicle: Klucel (hydroxypropylcellulose) (HPC) 103 % of control | [14] 100 % of control | [15] 103 % of control | [16] 103 % of control

C=C1C(=O)[C@@]23CC1C(O)[C@@H](OC(C)=O)[C@@H]2C1(C)C(OC(C)=O)C[C@@H](OC(C)=O)C(C)(C)[C@@H]1C[C@H]3OC(C)=O (stereo not given in full)
inactive: dose: 25.0 mg/kg/injection, schedule: Q01DX005 (ip), vehicle: Klucel (hydroxypropylcellulose) (HPC) 102 % of control | [10] 117 % of control

COCn1ccnc1C(=O)c1ccccc1
inactive: [9] 100 % of control | [1] 106 % of control | [2] 101 % of control

N#CC(=C1C=CC(=NO)C=C1)c1ccc(Cl)cc1
inactive: [17] 91 % of control | [18] 100 % of control and 92 % of control | [3] 98 % of control and 105 % of control | [5] 117 % of control

Cc1ccc(-c2c(Br)c(OC(=O)CO[C@@H]3C[C@H](C)CC[C@H]3C(C)C)c(-c3ccc(C)cc3C)c(Br)c2OC(=O)CO[C@H]2C[C@@H](C)CC[C@@H]2C(C)C)c(C)c1
inactive: [6] 95 % of control | [7] 88 % of control | [8] 88 % of control

COC(=O)/C=C/C=C(c1ccccc1)c1ccccc1
inactive: [9] 99 % of control | [1] 104 % of control | [2] 106 % of control | [4] 113 % of control

NC(=S)Nc1cccc(C(F)(F)F)c1
inactive: dose: 100.0 mg/kg/injection, schedule: Q01DX009 (ip), vehicle: other 104 % of control | dose: 200.0 mg/kg/injection, schedule: Q01DX009 (ip), vehicle: other 115 % of control

COC(=O)C1(C(C(=O)c2ccccc2)c2ccccc2)NC(=S)NC(=O)C1C#N (stereo not given)
inactive: [19] 100 % of control | [20] 105 % of control | [21] 100 % of control

CC1CC(=O)c2c(nn(C)c2COCc2ccccc2)C1 (stereo not given)
inactive: [19] 102 % of control | [20] 91 % of control | [21] 96 % of control

O=S(=O)(O)c1ccc2c(c1)C1C(C3C2C2(Cl)C(Cl)=C(Cl)C3(Cl)C2(Cl)Cl)C2(Cl)C(Cl)=C(Cl)C1(Cl)C2(Cl)Cl (stereo not given)
inactive: [11] 108 % of control | [12] 108 % of control | [13] 114 % of control

Cc1c(-c2ccccc2)ccnc1/C=N/NC(=S)NCCc1ccccc1
inactive: [1] 101 % of control and 95 % of control

CC(CN(CC(=O)O)CC(=O)O)N(CC(=O)O)CC(=O)O.[Cl][Pd][Cl] (stereo not given)
inactive: dose: 60.0 mg/kg/injection, schedule: Q01DX005 (ip), vehicle: saline 94 % of control | dose: 120.0 mg/kg/injection, schedule: Q01DX005 (ip), vehicle: saline 91 % of control

O=C(NO)c1ccccc1
inactive: [14] 98 % of control | dose: 50.0 mg/kg/injection, schedule: Q01DX001 (ip), vehicle: saline 102 % of control | [15] 98 % of control | [9] 103 % of control | [17] 106 % of control | dose: 100.0 mg/kg/injection, schedule: Q01DX001 (ip), vehicle: saline 102 % of control | [16] 107 % of control | [18] 102 % of control | dose: 200.0 mg/kg/injection, schedule: Q01DX009 (ip), vehicle: Klucel (hydroxypropylcellulose) (HPC) 116 % of control | [2] 103 % of control | [3] 102 % of control | dose: 400.0 mg/kg/injection, schedule: Q01DX009 (ip), vehicle: Klucel (hydroxypropylcellulose) (HPC) 114 % of control | [5] 109 % of control

CC(=O)OCC1OC(N2C(=O)c3ccccc3S2(=O)=O)C(OC(C)=O)C(OC(C)=O)C1OC(C)=O (stereo not given)
inactive: dose: 100.0 mg/kg/injection, schedule: Q04DX002 (ip), vehicle: saline with Tween-80 100 % of control | dose: 200.0 mg/kg/injection, schedule: Q04DX002 (ip), vehicle: saline with Tween-80 91 % of control | dose: 400.0 mg/kg/injection, schedule: Q04DX002 (ip), vehicle: saline with Tween-80 96 % of control

CC(C)(C)C(=O)NC(OC(NC(=O)C(C)(C)C)C(=O)C(C)(C)C)C(=O)C(C)(C)C (stereo not given)
inactive: [19] 97 % of control | [20] 99 % of control | [21] 105 % of control

COC1=CC(C)C2CC3OC(=O)CC4C(C)C(=O)C(O)C(C2(C)C1=O)C34C (stereo not given)
inactive: dose: 2.5 mg/kg/injection, schedule: Q01DX009 (ip), vehicle: Klucel (hydroxypropylcellulose) (HPC) 90 % of control | dose: 5.0 mg/kg/injection, schedule: Q01DX009 (ip), vehicle: Klucel (hydroxypropylcellulose) (HPC) 100 % of control | dose: 10.0 mg/kg/injection, schedule: Q01DX009 (ip), vehicle: Klucel (hydroxypropylcellulose) (HPC) 106 % of control | dose: 20.0 mg/kg/injection, schedule: Q01DX009 (ip), vehicle: Klucel (hydroxypropylcellulose) (HPC) 98 % of control

O=C1C(Cl)=C(N2CC2)C(=O)C(Cl)=C1N1CC1
active: dose: 2.5 mg/kg/injection, schedule: Q01DX009 (ip), vehicle: saline with Tween-80 155 % of control | dose: 5.0 mg/kg/injection, schedule: Q01DX009 (ip), vehicle: saline with Tween-80 155 % of control | dose: 10.0 mg/kg/injection, schedule: Q01DX009 (ip), vehicle: saline with Tween-80 155 % of control
inactive: dose: 0.08 mg/kg/injection, schedule: Q01DX009 (ip), vehicle: saline with Tween-80 105 % of control | dose: 0.16 mg/kg/injection, schedule: Q01DX009 (ip), vehicle: saline with Tween-80 112 % of control | dose: 0.31 mg/kg/injection, schedule: Q01DX009 (ip), vehicle: saline with Tween-80 122 % of control | dose: 0.63 mg/kg/injection, schedule: Q01DX009 (ip), vehicle: saline with Tween-80 124 % of control

Cc1c(N=O)c(-c2ccccc2)n(O)[n+]1[O-]
inactive: [19] 102 % of control | [20] 101 % of control | [21] 102 % of control

C1CCC(C2CCCC[N-]2)[N-]C1.O.O.[Pd+2] (stereo not given)
inactive: dose: 6.25 mg/kg/injection, schedule: Q04DX003 (ip), vehicle: Klucel (hydroxypropylcellulose) (HPC) 102 % of control | dose: 6.25 mg/kg/injection, schedule: Q04DX003 (ip), vehicle: saline with Tween-80 96 % of control | dose: 12.5 mg/kg/injection, schedule: Q04DX003 (ip), vehicle: Klucel (hydroxypropylcellulose) (HPC) 102 % of control | dose: 12.5 mg/kg/injection, schedule: Q04DX003 (ip), vehicle: saline with Tween-80 104 % of control | dose: 25.0 mg/kg/injection, schedule: Q04DX003 (ip), vehicle: Klucel (hydroxypropylcellulose) (HPC) 102 % of control | dose: 25.0 mg/kg/injection, schedule: Q04DX003 (ip), vehicle: saline with Tween-80 98 % of control and 105 % of control | dose: 50.0 mg/kg/injection, schedule: Q04DX003 (ip), vehicle: Klucel (hydroxypropylcellulose) (HPC) 101 % of control | [17] 96 % of control | [18] 97 % of control
